Where a SMILES comes first, the peptide text is derived from it. The star is where a group is joined. Cbz = O=C(OCc1ccccc1)*; CH2F = FC*
Experiments:
[1] = tested on: TNFα secretion by microglia primary cultures; test: TNFα ELISA, microglia primary cultures treated with Aβ42; format: cell-based; settings: 10 μM, 30 minutes before Aβ42 200 nM, FIG. 10B
Experimental: (§1) The levels of TNFα mRNA were measured by quantitative PCR. B) Microglia primary cultures were incubated for 30 minutes with or without 10 μM Nec-1 prior to being treated with Aβ42 (200 nM). TNFα secretion was measured by ELISA. The data correspond to the mean±SD (N=3). C) Cell survival of microglia primary cultures treated with Aβ42 (200 nM) for indicated times with and without Nec1 was measured by CellTiter-Glo® assay. Error bars represent the mean of two different experiments.
(§2) The role played by RIP1 in the induction of TNFα production by amyloid-β in microglial cells was investigated.

[2] = tested on: TNFα production in L929 cells; test: TNFα ELISA on cell lysates, L929 cells treated with SM-164; format: cell-based
Experimental: (§3) Smac mimetic compounds are IAP antagonists that induce the production of TNFα. Smac mimetic compounds induce the autoubiquitination and degradation of cIAP1. […] This cell death was inhibited by treatment with 10 μM Nec-1, or with 0.2 μg/ml or 1.0 μg/ml of TNFα neutralizing antibody (FIG. 2A).

[3] = tested on: TNFα production in BV2 cells; test: TNFα mRNA by quantitative PCR, BV2 cells treated with Aβ42; format: cell-based; settings: 10 μM, 30 minutes before Aβ42 200 nM, FIG. 10A
Experimental: as §1, §2

[4] = tested on: TNFα secretion by BV-2 cells; test: TNFα ELISA, BV-2 cells pretreated with IFNγ and treated with CD40L; format: cell-based; settings: 100 U/ml IFNγ 20 hours, 0.1 μg/ml CD40L 4 or 8 hours, FIG. 13B
Experimental: (§4) A, L929 cells were treated with 0.2 μg/ml CD40L, 100 U/ml IFNγ, and/or 1 μg/ml TNFα neutralizing antibody and then treated with 10 μM Nec-1 (right bar) or a DMSO control (left bar) for 24 hours. Viability was measure by ATP luminescence assay. B, BV-2 cells were pretreated with 100 U/ml IFNγ for 20 hours, and treated with 0.1 μg/ml CD40L for 4 or 8 hours. TNFα secretion was measured by ELISA.
To confirm the role of RIP1 in CD40L-induced TNFα production, BV-2 cells were pretreated with IFNγ and CD40L to induce TNFα production and then exposed to Nec-1.

[5] = tested on: TNFα production in J774 cells; test: TNFα ELISA, J774 cells treated with LPS; format: cell-based, murine; settings: 10 μM, J774 cells with 1 μg/ml LPS, cell lysate, FIG. 4
Experimental: (§5) In the TNFα signaling pathway, cIAP1, the target of Smac mimetic compounds, interacts closely with another protein, Traf2. L929 cells were transfected with Traf2 siRNA, treated with 10 μM Nec-1 or 1.0 μg/ml anti-TNFα antibody for 48 hours and cell viability measured by ATP assay. […] This death was also dependent on TNFα production, as it was inhibited by treatment with a TNFα neutralizing antibody or with knockdown of TNFR1 (FIGS. 3A and 3B). […] One such treatment is lipopolysaccharide (LPS), a component of the bacterial outer membrane. […] However, treatment of such cells with 10 μM Nec-1 has no effect on TNFα production in this case (FIG. 4).

[6] = tested on: TNFα production in J774 cells; test: TNFα ELISA, J774 cells treated with zVAD.fmk (cell lysate and supernatant); format: cell-based, murine; settings: FIG. 1
Experimental: The role of RIP1 kinase in the regulation of TNFα induction was investigated. zVAD.fmk is a caspase inhibitor that induces TNFα expression in various cell types. Murine macrophage J774 cells were treated with 20 μM zVAD.fmk and 10 μM of necrostatin and RIP1 inhibitor Nec-1 for the various periods of time. Cell lysates were extracted and analyzed by TNFα specific ELISA. As depicted in FIG. 1, treatment with zVAD.fmk induces an upregulation in TNFα protein levels as measured by ELISA in the cell lysate.

L929 cells [7] = test: Cell viability by ATP assay, L929 cells transfected with Traf2 siRNA; format: cell-based; settings: 10 μM, 48 hours, FIG. 3A
Experimental: as §5

[8] = tested on: microglia primary cultures; test: Cell survival by CellTiter-Glo, microglia primary cultures treated with Aβ42; format: cell-based; settings: Aβ42 200 nM, FIG. 10C
Experimental: as §1, §2

[9] = tested on: TNFα secretion by splenic macrophages; test: TNFα ELISA, splenic macrophages stimulated by CD154 and IFNγ; format: cell-based, C57BL/6 mouse; settings: 10 μM, pretreated 1 hour, then 24 hours 1 μg/ml CD154 and 100 U/ml IFNγ, FIG. 6
Experimental: To further explore the role of RIP1 kinase in mediating CD40 signaling, the effect of necrostatins on the production of TNFα by primary macrophages stimulated by CD154 was tested. Splenocytes isolated from a C57BL/6 mouse were cultured for 10 days in RPMI media with 10% FBS and 50 μM 2-mercaptoethanol. The attached cells were harvested as splenic macrophages. The macrophages were pretreated for 1 hour with 10 μ[…] Nec-1, 10 μM Nec-21, 10 μM Nec-29, or 1 μM Nec-12, then treated for 24 hours with 1 μg/ml recombinant CD154 (CD40L, R&D Systems) and/or 100 U/ml IFNγ as. TNFα secretion in the cell culture supernatant was analyzed by ELISA assay. As depicted in FIG. 6, the production of TNFα in splenic macrophages stimulated by CD154 in the presence of IFNγ was inhibited by Nec-1 as well as by the three other necrostatins tested, Nec-12, Nec-21 and Nec-29. These experiments indicate that RIP1 is involved in mediating TNFα production downstream of CD40 activation.

L929 cells [10] = test: Cell viability by ATP assay, L929 cells treated with Smac mimetic SM-164; format: cell-based
Experimental: as §3

L929 cells [11] = test: Viability by ATP luminescence assay, L929 cells treated with CD40L and IFNγ; format: cell-based; settings: 10 μM, 24 hours, 0.2 μg/ml CD40L, 100 U/ml IFNγ, FIG. 13A
Experimental: as §4
The role of RIP1 in CD40L induced TNFα production was investigated.

L929 cells [12] = test: Cell survival by CellTiter-Glo, L929 cells treated with CD154 and/or IFNγ; format: cell-based; settings: 10 μM, 32 hrs, CD154 0.1 μg/ml, FIG. 5
Experimental: To test the involvement of CD40 in necroptosis, L929 cells were treated with CD154 (0.1 μg/ml), IFNγ (100 U/ml) and/or TNFα neutralizing antibody (1 μg/ml) alone or in combination and with or without Nec-1 (10 μM) for 32 hrs. Following treatment, cell survival was determined by CellTiter-Glo (Promega). As depicted in FIG. 5, the death of L929 cells induced by either the presence of either CD154 alone or by the presence of both CD154 and IFNγ was inhibited by Nec-1. Thus, RIP1 kinase selectively mediates intracellular signaling downstream of CD40 stimulation

CN1C(=O)C(Cc2c[nH]c3ccccc23)NC1=S (stereo not shown) [Nec-1]
levels of TNFα (secretion) after Aβ42 exposure [1]: reduced levels of TNFα | inhibition of SM-164-induced TNFα production ([2]; co-treatment, FIG. 2B): completely inhibited | levels of TNFα (mRNA) after Aβ42 exposure [3]: reduced levels of TNFα | inhibition of CD40L-induced TNFα production [4]: significantly inhibited | effect on LPS-induced TNFα production [5]: no effect | inhibition of zVAD.fmk-induced production of TNFα ([6]; 10 μM co-treatment with 20 μM zVAD.fmk): almost completely inhibits | inhibition of cell death induced by loss of Traf2 (L929 cells [7]): completely inhibit | effect on survival of microglia primary cells [8]: minor protective effect | inhibition of TNFα production stimulated by CD154 in the presence of IFNγ [9]: inhibited | inhibition of SM-164-induced cell death (L929 cells [10]; 10 μM, L929 cells with 100 nM SM-164, FIG. 2A): inhibited | viability of cells cultured in IFNγ and CD40L (L929 cells [11]): largely restored | inhibition of cell death induced by CD154 alone (L929 cells [12]): inhibited | inhibition of cell death induced by both CD154 and IFNγ (L929 cells [12]; IFNγ 100 U/ml): inhibited

CN[C@@H](C)C(=O)N[C@H]1CCCC[C@H]2CC[C@@H](C(=O)N[C@@H](c3ccccc3)c3cn(CCCCc4ccc(CCCCn5cc([C@@H](NC(=O)[C@@H]6CC[C@@H]7CCCC[C@H](NC(=O)[C@H](C)NC)C(=O)N76)c6ccccc6)nn5)cc4)nn3)N2C1=O [SM-164, reference compound]
TNFα production after treatment ([2]; SM-164 treatment, ELISA on cell lysates): induced an increase | cell death induced by treatment (L929 cells [10]; 100 nM, L929 cells, ATP assay): undergo cell death

COC(=O)C[C@H](NC(=O)[C@H](C)NC(=O)[C@@H](NC(=O)OCc1ccccc1)C(C)C)C(=O)CF [zVAD.fmk, reference compound] (Cbz-Val-Ala-Asp(OMe)-CH2F)
TNFα protein levels after treatment ([6]; 20 μM zVAD.fmk, ELISA in cell lysate): upregulation

— US9643977B2, “Necroptosis inhibitors and methods of use therefor” (President and Fellows of Harvard College, priority 2011, dated 2017)
